Test results published in US20060263802A1 (priority 2003, published 2006).

Key:
Type in all cases: binding
[1] = system: human monoclonal antibody CRJB
[2] = system: human monoclonal antibody CR57
[3] = system: human monoclonal antibody CRJB; remark: listed apart in the source
[4] = system: human monoclonal antibody CRJA
[5] = system: human monoclonal antibody CRJA; remark: listed apart in the source
[6] = system: human monoclonal antibody CR57; remark: listed apart in the source

Sequence: MELKVGYILAIKMNG
- Binding of CRJB (10 μg/ml) to looped/cyclic peptide (PEPSCAN-ELISA signal) [1]: 93
- Binding of CR57 (10 μg/ml) to looped/cyclic peptide (PEPSCAN-ELISA signal) [2]: 71
- Binding of CRJB to linear peptide (PEPSCAN-ELISA signal) [3]: 141
- Binding of CRJA (10 μg/ml) to looped/cyclic peptide (PEPSCAN-ELISA signal) [4]: 66
- Binding of CRJA to linear peptide (PEPSCAN-ELISA signal) [5]: 92
- Binding of CR57 to linear peptide (PEPSCAN-ELISA signal) [6]: 76

Sequence: MELLESSVIPLVHPL
- Binding of CRJB (10 μg/ml) to looped/cyclic peptide (PEPSCAN-ELISA) [1]: 100
- Binding of CR57 (10 μg/ml) to looped/cyclic peptide (PEPSCAN-ELISA) [2]: 115
- Binding of CRJB to linear peptide (PEPSCAN-ELISA signal) [3]: 125
- Binding of CRJA (10 μg/ml) to looped/cyclic peptide (PEPSCAN-ELISA) [4]: 94
- Binding of CRJA to linear peptide (PEPSCAN-ELISA signal) [5]: 83
- Binding of CR57 to linear peptide (PEPSCAN-ELISA signal) [6]: 90

Sequence: MNGFTCTGVVTEAEN
- Binding of CRJB (10 μg/ml) to looped/cyclic peptide (PEPSCAN-ELISA signal) [1]: 118
- Binding of CR57 (10 μg/ml) to looped/cyclic peptide (PEPSCAN-ELISA signal) [2]: 85
- Binding of CRJB to linear peptide (PEPSCAN-ELISA signal) [3]: 99
- Binding of CRJA (10 μg/ml) to looped/cyclic peptide (PEPSCAN-ELISA signal) [4]: 78
- Binding of CRJA to linear peptide (PEPSCAN-ELISA signal) [5]: 87
- Binding of CR57 to linear peptide (PEPSCAN-ELISA signal) [6]: 69

Sequence: MPENPRLGMSCDIFT
- Binding of CRJB (10 μg/ml) to looped/cyclic peptide (PEPSCAN-ELISA signal) [1]: 87
- Binding of CR57 (10 μg/ml) to looped/cyclic peptide (PEPSCAN-ELISA signal) [2]: 107
- Binding of CRJB to linear peptide (PEPSCAN-ELISA signal) [3]: 121
- Binding of CRJA (10 μg/ml) to looped/cyclic peptide (PEPSCAN-ELISA signal) [4]: 111
- Binding of CRJA to linear peptide (PEPSCAN-ELISA signal) [5]: 107
- Binding of CR57 to linear peptide (PEPSCAN-ELISA signal) [6]: 105

Sequence: MQSSLLQQHMELLES
- Binding of CRJB (10 μg/ml) to looped/cyclic peptide (PEPSCAN-ELISA) [1]: 90
- Binding of CR57 (10 μg/ml) to looped/cyclic peptide (PEPSCAN-ELISA) [2]: 72
- Binding of CRJB to linear peptide (PEPSCAN-ELISA signal) [3]: 113
- Binding of CRJA (10 μg/ml) to looped/cyclic peptide (PEPSCAN-ELISA) [4]: 99
- Binding of CRJA to linear peptide (PEPSCAN-ELISA signal) [5]: 113
- Binding of CR57 to linear peptide (PEPSCAN-ELISA signal) [6]: 65

Sequence: MQTSNETKWCPPDQL
- Binding of CRJB (10 μg/ml) to looped/cyclic peptide (PEPSCAN-ELISA) [1]: 33
- Binding of CR57 (10 μg/ml) to looped/cyclic peptide (PEPSCAN-ELISA) [2]: 138
- Binding of CRJB to linear peptide (PEPSCAN-ELISA signal) [3]: 132
- Binding of CRJA (10 μg/ml) to looped/cyclic peptide (PEPSCAN-ELISA) [4]: 74
- Binding of CRJA to linear peptide (PEPSCAN-ELISA signal) [5]: 112
- Binding of CR57 to linear peptide (PEPSCAN-ELISA signal) [6]: 104

Sequence: MSCDIFTNSRGKRAS
- Binding of CRJB (10 μg/ml) to looped/cyclic peptide (PEPSCAN-ELISA signal) [1]: 73
- Binding of CR57 (10 μg/ml) to looped/cyclic peptide (PEPSCAN-ELISA signal) [2]: 71
- Binding of CRJB to linear peptide (PEPSCAN-ELISA signal) [3]: 110
- Binding of CRJA (10 μg/ml) to looped/cyclic peptide (PEPSCAN-ELISA signal) [4]: 49
- Binding of CRJA to linear peptide (PEPSCAN-ELISA signal) [5]: 71
- Binding of CR57 to linear peptide (PEPSCAN-ELISA signal) [6]: 46

Sequence: MTTKSVSFRRLSHLR
- Binding of CRJB (10 μg/ml) to looped/cyclic peptide (PEPSCAN-ELISA) [1]: 8
- Binding of CR57 (10 μg/ml) to looped/cyclic peptide (PEPSCAN-ELISA) [2]: 68
- Binding of CRJB to linear peptide (PEPSCAN-ELISA signal) [3]: 116
- Binding of CRJA (10 μg/ml) to looped/cyclic peptide (PEPSCAN-ELISA) [4]: 79
- Binding of CRJA to linear peptide (PEPSCAN-ELISA signal) [5]: 74
- Binding of CR57 to linear peptide (PEPSCAN-ELISA signal) [6]: 59

Sequence: NEILPSKGCLRVGGR
- Binding of CRJB (10 μg/ml) to looped/cyclic peptide (PEPSCAN-ELISA) [1]: 111
- Binding of CR57 (10 μg/ml) to looped/cyclic peptide (PEPSCAN-ELISA) [2]: 104
- Binding of CRJB to linear peptide (PEPSCAN-ELISA signal) [3]: 130
- Binding of CRJA (10 μg/ml) to looped/cyclic peptide (PEPSCAN-ELISA) [4]: 105
- Binding of CRJA to linear peptide (PEPSCAN-ELISA signal) [5]: 97
- Binding of CR57 to linear peptide (PEPSCAN-ELISA signal) [6]: 104

Sequence: NFVGYVTTTFKRKHF
- Binding of CRJB (10 μg/ml) to looped/cyclic peptide (PEPSCAN-ELISA signal) [1]: 98
- Binding of CR57 (10 μg/ml) to looped/cyclic peptide (PEPSCAN-ELISA signal) [2]: 92
- Binding of CRJB to linear peptide (PEPSCAN-ELISA signal) [3]: 107
- Binding of CRJA (10 μg/ml) to looped/cyclic peptide (PEPSCAN-ELISA signal) [4]: 83
- Binding of CRJA to linear peptide (PEPSCAN-ELISA signal) [5]: 88
- Binding of CR57 to linear peptide (PEPSCAN-ELISA signal) [6]: 65

Sequence: NGFTCTGVVTEAENY
- Binding of CRJB (10 μg/ml) to looped/cyclic peptide (PEPSCAN-ELISA signal) [1]: 76
- Binding of CR57 (10 μg/ml) to looped/cyclic peptide (PEPSCAN-ELISA signal) [2]: 92
- Binding of CRJB to linear peptide (PEPSCAN-ELISA signal) [3]: 101
- Binding of CRJA (10 μg/ml) to looped/cyclic peptide (PEPSCAN-ELISA signal) [4]: 82
- Binding of CRJA to linear peptide (PEPSCAN-ELISA signal) [5]: 98
- Binding of CR57 to linear peptide (PEPSCAN-ELISA signal) [6]: 69
